Structures are written as SMILES.

The subject of series [1] is ciliary beating frequency of rat trachea. The experiment in a line: Ciliary beating frequency, microphoto-oscillographic method of L. Chevance et al. The note with it: at 0.6%; within 20 minutes. It is filed as cell-based. As for the experimental part: 70, […] (1970). These are just some of the disadvantageous effects that can be encountered.
Moreover the compositions are well tolerated as indicated in standard tests, e.g. in that less than 50% inhibition of ciliary beating frequency is observed up to 20 minutes after administration, according to the microphoto-oscillographic method of L. Chevance et al, Acta Otolaryng. 70, 26-28 (1970).

Series [2] in a line: Relative bio-availability study: nasal administration/intra-muscular injection of salmon calcitonin, serum level by radio-immuno-assay. It is filed as in vivo, human (healthy volunteers). As for the experimental part:
The study is conducted with 12 healthy volunteers, 6 male and 6 female, with a body weight of from 50 to 85 kg. Each subject receives 4 administrations of salmon calcitonin, one intra-muscularly and 3 nasally. Administration is effected at the following dosages:
Nasal administration is effected using composition in accordance with example 1 and a spray-applicator delivering 55 MRC units per individual spray dosage. For the purposes of administration the subject is laid on the back with the head tilted backwards for 5 minutes. The nostrils are cleaned by blowing of the nose immediately prior to administration.
Intra-muscular administration is effected by injection of a single 1 ml dose of a composition similar to that of example 1, but omitting benzalkonium chloride and containing 50 MRC units into the glutaeus medius muscle.
Each subject receives the 4 administrations in randomized sequence, and at least 3 days are allowed between consecutive administrations. Each administration is effected in the morning after a light breakfast from which milk, butter and cheese is excluded. 100 ml water or orange juice is taken hourly following treatment to maintain urinary output. Further food is allowed not earlier than 4 hours after treatment.
Blood samples are taken immediately prior to administration (control), and at intervals of 5, 15, 30, 60, 90, 120, 180, 240, 360 and 480 minutes following administration. For the control a 20 ml sample is taken. All subsequent samples are 2 ml samples.
The concentration of salmon calcitonin in each serum sample is measured by radio-immuno-assay. Blood-pressure is controlled during the course of the trial and urine-samples tested for possible adverse reaction. Occurrence of side-effects, e.g. symptoms of nausea, is noted.
The AUC ("area under curve") for salmon calcitonin plasma concentration is calculated statistically, once employing all value, including those below the 26 pg/ml detectability limit, once with values below the detectability limit read as zero. Maximal plasma concentration and time at which this is reached are also determined. […]

`CC(C)(O)C(Cl)(Cl)Cl` [chlorbutanol]: the “inhibition of the ciliary beating frequency of rat trachea” value in series [1] is reported as “more than 50%”.
`CC(C)C[C@H](NC(=O)[C@H](CCCCN)NC(=O)CNC(=O)[C@H](CC(C)C)NC(=O)[C@@H](NC(=O)[C@@H]1CSSC[C@H](N)C(=O)N[C@@H](CO)C(=O)N[C@@H](CC(N)=O)C(=O)N[C@@H](CC(C)C)C(=O)N[C@@H](CO)C(=O)N[C@@H]([C@@H](C)O)C(=O)N1)C(C)C)C(=O)N[C@@H](CO)C(=O)N[C@@H](CCC(N)=O)C(=O)N[C@@H](CCC(=O)O)C(=O)N[C@@H](CC(C)C)C(=O)N[C@@H](Cc1c[nH]cn1)C(=O)N[C@@H](CCCCN)C(=O)N[C@@H](CC(C)C)C(=O)N[C@@H](CCC(N)=O)C(=O)N[C@H](C(=O)N[C@@H](Cc1ccc(O)cc1)C(=O)N1CCC[C@H]1C(=O)N[C@@H](CCCNC(=N)N)C(=O)N[C@H](C(=O)N[C@@H](CC(N)=O)C(=O)N[C@H](C(=O)NCC(=O)N[C@@H](CO)C(=O)NCC(=O)N[C@H](C(=O)N1CCC[C@H]1C(N)=O)[C@@H](C)O)[C@@H](C)O)[C@@H](C)O)[C@@H](C)O` [salmon calcitonin]: the “AUC of serum concentration compared with 50 MRC units i.m.” value in series [2] (110 MRC units intra-nasally) and in series [2] (220 MRC units intra-nasally) was “comparable” throughout. Besides, the adverse side-effects entry in series [2] (nasal administrations, up to the highest dosage of 220 MRC units) is given as “No adverse side-effects were recorded”.
